Assay results as given in patent US20130150399A1, “INHIBITORS OF THE UNFOLDED PROTEIN RESPONSE AND METHODS FOR THEIR USE” (The Board of Trustees of the Leland Stanford Junior …, priority 2006, published 2013).
“And” between values parts separate entries of the source, which are not always exact repeats. Equal values may be shown once.

Key:
[1] = system: PANC1 pancreatic adenocarcinoma cells; assay: PANC1 tumor growth in vivo; design: species or system nude mice; conditions: 60 mg/kg ip bolus every 48 hours, 5 doses
Experimental: Dose: 60 mg/kg ip bolus injection every 48 hours. 5 total doses. 5-7 tumors per group. PANC1 pancreatic adenocarcinoma cell line.
PANC1 pancreatic adenocarcinoma cells were implanted subcutaneously into nude mice. Mice were then given a bolus injection of one of the inventive irestatins (1401, 9337, 3611 or 9389) at a dose of 60 mg/kg every 48 hours for a total of 5 doses, with 5-7 tumors being treated per group.

[2] = system: XBP1-luciferase reporter; assay: XBP-luciferase reporter high throughput screen / IRE IC50 (tunicamycin + thapsigargin induced); type: cell-based, human
Experimental: Specifically, HT1080 fibrosarcoma cells stably transfected with the unspliced XBP-1-luciferase reporter construct (3000/well) were plated onto a solid white 384 well microplate with a multidrop dispenser (40 μL per well). The plates were then placed into an automated incubator. After 24 hours of growth, a mixture of tunicamycin (1 μg/ml) and thapsigargin (100 nM) inducers were added, and candidate compounds were then added to the plates. After 24 hours, luciferase reagent (10 μl) was added to each well and the plates were read in a Molecular Devices Analyst GT (0.2 second read per well).
As described above in Example 2, HT1080 fibrosarcoma cells stably expressing the XBP-luciferase reporter were plated in a 384 well microplate (4000 cells/well). After 24 hours, cells were treated with a mixture of tunicamycin (4 μg/ml) and thapsigargin (0.4 μM), followed by the addition of one compound per well (10 μM). We screened a total of 66,000 diverse molecules obtained from Specs, Chembridge and ChemRX. Twenty-four hours post-induction, BriteGlo luciferase substrate (10 μl) was added to each well and the signal intensity determined in a plate reader (0.2 s read per well). […] We retested 431 compounds from the initial screen, and selected 58 compounds for additional analysis, including calculation of IC50 values and inhibition of a CMV-luciferase reporter.
Compounds of the screening library with structural similarity to compound 9389 (see Table 1) have been identified and in some cases further assayed for inhibitory activity. Compounds listed with “IC50” values were assayed secondarily after initially being identified in the high throughput screen. Each value represents a separate calculation of reporter inhibition based upon the high throughput robotic screening platform. The actual IC50 values are calculated and represent an estimate of the potency of each compound. This assay is not considered to be accurate below a concentration of 10 nM. Compounds classified with “mild” activity inhibited the XBP1-luciferase reporter by 10-30%. Compounds classified with “moderate” activity inhibited the XBP1-luciferase reporter by 30-75%. Compounds classified with “potent” activity inhibited the XBP1-luciferase reporter by 75-100%. Compounds classified with “undetected” activity inhibited the XBP1-luciferase reporter by less than 10% under the defined conditions.

[3] = system: XBP-1 splicing; assay: Bioluminescence imaging of XBP-1 splicing in HT1080 XBP-1s-luciferase tumors; type: in vivo; conditions: for toxicity: nude mice
Experimental: Several nude mice were implanted with HT1080 cells stably expressing a XBP-1s-luciferase construct and XBP-1 activation was examined using bioluminescence imaging. Imaging was performed using the In Vivo Imaging System (IVIS, Xenogen Corporation, Alameda, Calif.) in the Stanford Center for Innovation in In Vivo Imaging (SCI3). This device consists of a cooled CCD camera mounted on a light-tight specimen chamber.

[4] = system: XBP-luciferase reporter; assay: XBP-luciferase reporter assay under Tm or hypoxia, HT1080 cells; type: cell-based, human; conditions: Tm alone, 24 hours
Experimental: (§1) HT1080 cells stably expressing the XBP-luciferase construct were grown in 60 mm dishes to 60-70% confluency. Following hypoxia treatment, cells were washed twice with PBS, lysed in 400 μl 1× reporter lysis buffer (RLB) (Promega, Madison Wis.) for 30 min at 24° C. Lysates (100 μl) were mixed with an equal volume of luciferase substrate (Promega), and assayed using a luminometer. For 5×-UPRE-luciferase reporter assays, cells were co-transfected with the appropriate reporter plasmid and a control plasmid (pSV40-beta-gal) using Lipofectamine 2000 (Invitrogen, San Diego, Calif.). Twenty-four hours after transfection, fresh media was added, and cells were treated with Tm or shifted to hypoxia. After treatment, cells were lysed in 1×RLB and analyzed for luciferase activity as described above. Beta-galactosidase activity was determined using the beta-galactosidase enzyme assay system (Promega).
A. XBP-luciferase reporter construct. Firefly luciferase was inserted downstream of the IRE1α splice site in human XBP-1 to enable the conditional translation of luciferase under ER stress in an IRE1α-dependent manner. B. Selective inhibition of the XBP-luciferase reporter by irestatin 9389. HT1080 human fibrosarcoma cells stably expressing the XBP-luciferase reporter or CMV-luciferase were cultured in the presence of Tm (4 μg/ml) and Tg (0.4 μM) and irestatin 9389 at the indicated concentrations. After 24 hours, luciferase activity was analyzed in an automated plate reader. For each cell line, values are expressed as the percent inhibition of the median for Tm/Tg-treated wells, corrected for background. C. Structure of irestatin 9389. D. XBP-luciferase reporter assay. HT1080 cells stably expressing the XBP-luciferase reporter were exposed to Tm (4 μg/ml) for 24 hours or hypoxia (0.1% oxygen) for 24 or 48 hours, in the presence of DMSO or irestatin 9389 (1 μM) as indicated. Values are expressed as the fold increases over uninduced levels. E. 5×-UPRE reporter assay. HT1080 cells were co-transfected with 5×-UPRE luciferase and SV40-beta-gal reporter plasmids, followed by exposure to Tm or hypoxia as in D. For each condition, luciferase activity is normalized to beta-galactosidase expression levels as an internal control for transfection efficiency. F. Western immunoblot analysis of XBP-1s. HT1080 cells were left untreated (lane 2) or exposed to Tm (4 μg/ml) for 20 hours in the presence of DMSO vehicle (lane 1) or the indicated irestatins (2 μM; lanes 3-6). […] Cells were harvested, lysed, and analyzed by immunoblotting with antisera specific for HIF-1α (top), XBP-1s (middle) or actin (bottom). […] Total RNA was analyzed by Northern blotting using radiolabeled probes specific for P58^IPK or DER-1. […]

[5] = system: 5×-UPRE luciferase reporter (XBP-1s); assay: 5×-UPRE luciferase reporter assay, HT1080 cells; type: cell-based, human; conditions: Tm alone
Experimental: as §1
A. XBP-luciferase reporter construct. Firefly luciferase was inserted downstream of the IRE1α splice site in human XBP-1 to enable the conditional translation of luciferase under ER stress in an IRE1α-dependent manner. B. Selective inhibition of the XBP-luciferase reporter by irestatin 9389. HT1080 human fibrosarcoma cells stably expressing the XBP-luciferase reporter or CMV-luciferase were cultured in the presence of Tm (4 μg/ml) and Tg (0.4 μM) and irestatin 9389 at the indicated concentrations. After 24 hours, luciferase activity was analyzed in an automated plate reader. For each cell line, values are expressed as the percent inhibition of the median for Tm/Tg-treated wells, corrected for background. C. Structure of irestatin 9389. […] Values are expressed as the fold increases over uninduced levels. […] Cells were harvested, lysed, and analyzed by immunoblotting with antisera specific for HIF-1α (top), XBP-1s (middle) or actin (bottom). […] Total RNA was analyzed by Northern blotting using radiolabeled probes specific for P58^IPK or DER-1. […]
Since these assays employed a chimeric XBP-luciferase substrate, we next determined whether irestatin 9389 could inhibit the function of endogenous XBP-1s. […]

[6] = system: Grp78; assay: Western immunoblot of Grp78, HT1080 cells; type: cell-based, human; conditions: Tm (5 μg/ml) for 8 hours, positive control
Experimental: Cells (2×10^6) were cultured in 10-cm dishes, collected using a cell scraper at 4° C., and lysed by addition of 150 μl cell lysis buffer [50 mM Tris pH 7.4, 150 mM NaCl, 10% glycerol, 0.5% Triton X-100. 0.5% NP-40, 2 mM Na3VO4, 20 mM beta-glycerophosphate, 10 mM NaF, 1 mM DTT, 1 mM PMSF). Lysates were centrifuged for 5 min at 10,000×g, and proteins (˜40 μg) were resolved by SDS-PAGE followed by semi-dry transfer to nitrocellulose membranes. Membranes were blocked in TBS-5% milk supplemented with 0.1% Tween-20. The blots were then probed overnight with relevant antibodies, washed, and incubated for 2 hours with species-specific secondary antibodies conjugated to horseradish peroxidase. After washing in block solution, immunoreactive material was detected by enhanced chemiluminescence (SuperSignal West Dura Extended, Pierce, Inc., Rockville, Ill.).
HT1080 cells were exposed to DMSO vehicle (lane 1), irestatin 9389 (2.5 μM; lane 2) for 16 hours or Tm (5 μg/ml; lane 3) for 8 hours. Following treatments, cells were harvested, lysed, and analyzed by immunoblotting using anti-Grp78 antibody (top) or anti-actin (bottom) as a loading control. […] Cell lysates were analyzed by Western immunoblotting using anti-IRE1α (bottom) or anti-phospho-IRE1α antibodies (top). […] Lysates were analyzed by Western blot using antisera specific for phospho-JNK1 (top) or total JNK1 (bottom). […]

CN1CCN(c2ccc3sc4ccccc4c(=O)c3c2)CC1 [Compound 1401]
tumor growth [1]: significant tumor growth was observed in untreated mice, but not in mice treated with the irestatins

Cc1cccc(NC(=O)c2sc3nc(C)cc(C(F)(F)F)c3c2N)n1 [Compound 2750]
% Inh ([2]; Assay HTS, Conc 10 uM): 16.6%

Nc1ccc(-c2ccc(-c3ccc(N)cc3)c(N)c2)cc1 [Compound 3281]
toxicity ([3]; 50 mg/kg IP): no apparent toxicity
XBP-1 splicing activity (bioluminescence) ([3]; 50 mg/kg IP, 8 hrs after injection): undetectable
XBP-1 splicing (bioluminescence) ([3]; 8 hrs after a second injection): again inhibited

Cc1cc2nc(NC(=O)CCCC(=O)O)sc2cc1C [Compound 3611]
tumor growth [1]: significant tumor growth was observed in untreated mice, but not in mice treated with the irestatins

Cc1csc(NC(=O)c2sc3nc4c(c(C(F)(F)F)c3c2N)CCCC4)n1 [Compound 4335]
% Inh ([2]; Assay IRE IC50, Conc 20 uM): 70.4%

Cc1csc(NC(=O)c2sc3nc4c(c(C(F)(F)F)c3c2N)CCC4)n1 [Compound 5500]
toxicity ([3]; 50 mg/kg IP): no apparent toxicity
effect on XBP-1 splicing (bioluminescence) ([3]; 50 mg/kg IP, at the time points assayed): did not have any affect on XBP-1 splicing
% Inh ([2]; Assay IRE IC50, Conc 20 uM): 104.4%

N#Cc1cccc(NC(=O)c2sc3nc4c(c(C(F)(F)F)c3c2N)CCC4)c1 [Compound 8878]
% Inh ([2]; Assay IRE IC50, Conc 20 uM): 72.4% and 50.0%

Cc1cn2cc(-c3ccc4ccccc4c3)nc2s1 [Compound 9337]
tumor growth [1]: significant tumor growth was observed in untreated mice, but not in mice treated with the irestatins

tunicamycin [Tm, reference compound]
increase of XBP-luciferase activity [4]: 60 fold
increase of 5×-UPRE luciferase activity over untreated cells [5]: ~12 fold
Grp78 levels [6]: robustly induced Grp78
